Measurements from paper PMC12064818, “A general assay platform to study protein pharmacology using ligand-dependent structural dynamics” (Nature Communications, 2025).

Legend:
[1] = biological target: T1, ABL1-N-HiBiT kinase domain (Homo sapiens, UniProt P00519); test: SDR assay, ABL1-N-HiBiT; conditions: ABL1, SDR; heatmap data, 128 kinase inhibitors
T1 sequence (P00519 233-500): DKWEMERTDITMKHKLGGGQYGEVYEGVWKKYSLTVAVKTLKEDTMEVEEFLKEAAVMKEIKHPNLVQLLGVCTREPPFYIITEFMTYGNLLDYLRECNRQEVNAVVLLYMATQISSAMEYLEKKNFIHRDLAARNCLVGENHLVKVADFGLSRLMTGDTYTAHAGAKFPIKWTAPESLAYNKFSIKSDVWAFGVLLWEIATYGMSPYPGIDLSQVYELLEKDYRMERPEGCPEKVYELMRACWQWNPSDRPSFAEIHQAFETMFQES

[2] = biological target: FLuc-N-HiBiT (firefly luciferase) (Photinus pyralis, UniProt P08659, form not given/L550V); test: SDR assay, FLuc-N-HiBiT; conditions: ATP-independent imidazo[2,1-b]thiazole (clade O) series; for % Activity (max response): SDR
FLuc-N-HiBiT (firefly luciferase), sequence (P08659 2-550 L550V, form open): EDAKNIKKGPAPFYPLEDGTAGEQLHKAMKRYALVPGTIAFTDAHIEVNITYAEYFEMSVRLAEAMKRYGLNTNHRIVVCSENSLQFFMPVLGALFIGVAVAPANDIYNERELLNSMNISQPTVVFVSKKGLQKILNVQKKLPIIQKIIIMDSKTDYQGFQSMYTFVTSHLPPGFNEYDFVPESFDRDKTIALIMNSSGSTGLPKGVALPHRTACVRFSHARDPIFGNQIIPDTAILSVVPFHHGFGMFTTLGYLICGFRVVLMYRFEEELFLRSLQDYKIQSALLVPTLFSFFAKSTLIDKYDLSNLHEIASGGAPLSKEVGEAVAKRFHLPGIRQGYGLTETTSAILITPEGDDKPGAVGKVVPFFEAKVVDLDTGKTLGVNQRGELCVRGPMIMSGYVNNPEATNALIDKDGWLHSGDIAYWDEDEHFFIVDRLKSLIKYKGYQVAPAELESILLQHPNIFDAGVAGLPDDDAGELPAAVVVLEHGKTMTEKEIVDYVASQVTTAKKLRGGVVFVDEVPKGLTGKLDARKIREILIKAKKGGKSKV

ABL1 SDR pSDR50 [1]	pSDR50 (clade O) [2]	% Activity (max response) [2]	SMILES
	5.98	50.48%	Clc1ccccc1Cc1cn2cc(-c3ccccc3)nc2s1 [Compound 0]
	5.92	39.94%	Fc1ccc(Cc2cn3cc(-c4ccccc4)nc3s2)cc1 [Compound 2]
	5.50	29.23%	Fc1ccccc1Cc1cn2cc(-c3ccc(Cl)cc3)nc2s1 [Compound 6]
	5.26	49.79%	Fc1ccc(-c2cn3cc(Cc4ccccc4Cl)sc3n2)cc1 [Compound 30]

The next lines start with the molecule.

SMILES	ABL1 SDR pSDR50 [1]	pSDR50 (clade O) [2]	% Activity (max response) [2]
Cc1ccccc1-n1c(C(C)Nc2nc(N)nc3nc[nH]c23)nc2cccc(C)c2c1=O.Cl (stereo not drawn) [CAL-130 HCl]	5.40		
Clc1ccc(-c2cn3cc(Cc4ccccc4)sc3n2)cc1 [Compound 4]		5.57	64.57%
Fc1ccc(-c2cn3cc(Cc4ccccc4)sc3n2)cc1 [Compound 10]		5.73	39.11%
Fc1ccc(Cc2cn3cc(-c4ccc(F)cc4)nc3s2)cc1 [Compound 34]		6.28	22.33%
